ChEMBL document CHEMBL1150413, “A series of potent and selective, triazolylphenyl-based histone deacetylases inhibitors with activity against pancreatic cancer cells and Plasmodium falciparum” (J Med Chem, 2008)

Tests used:
[1] = Cytotoxicity against human Panc 04.03 cells after 72 hrs by MTT assay; assay type: functional, cell-based; conditions: Panc 04.03, 72 h
Plasmodium falciparum [2] = assay: Antimalarial activity against Plasmodium falciparum W2 by hypoxanthine uptake; assay type: functional, organism-based
MIA PaCa-2 = assay: Cytotoxicity against human Mia Paca2 cells after 72 hrs by MTT assay; assay type: functional, cell-based; conditions: MIA PaCa-2, 72 h
BXPC-3 = assay: Cytotoxicity against human BxPC3 cells after 72 hrs by MTT assay; assay type: functional, cell-based; conditions: BXPC-3, 72 h
Histone deacetylase 2 = Histone deacetylase 2 (Homo sapiens, UniProt Q92769)
Plasmodium falciparum [3] = assay: Antimalarial activity against Plasmodium falciparum TM90C2A by hypoxanthine uptake; assay type: functional, organism-based
[4] = molecular target: T1, Protein deacetylase HDAC6 (Homo sapiens, UniProt Q9UBN7)
T1 sequence (Q9UBN7 whole entry): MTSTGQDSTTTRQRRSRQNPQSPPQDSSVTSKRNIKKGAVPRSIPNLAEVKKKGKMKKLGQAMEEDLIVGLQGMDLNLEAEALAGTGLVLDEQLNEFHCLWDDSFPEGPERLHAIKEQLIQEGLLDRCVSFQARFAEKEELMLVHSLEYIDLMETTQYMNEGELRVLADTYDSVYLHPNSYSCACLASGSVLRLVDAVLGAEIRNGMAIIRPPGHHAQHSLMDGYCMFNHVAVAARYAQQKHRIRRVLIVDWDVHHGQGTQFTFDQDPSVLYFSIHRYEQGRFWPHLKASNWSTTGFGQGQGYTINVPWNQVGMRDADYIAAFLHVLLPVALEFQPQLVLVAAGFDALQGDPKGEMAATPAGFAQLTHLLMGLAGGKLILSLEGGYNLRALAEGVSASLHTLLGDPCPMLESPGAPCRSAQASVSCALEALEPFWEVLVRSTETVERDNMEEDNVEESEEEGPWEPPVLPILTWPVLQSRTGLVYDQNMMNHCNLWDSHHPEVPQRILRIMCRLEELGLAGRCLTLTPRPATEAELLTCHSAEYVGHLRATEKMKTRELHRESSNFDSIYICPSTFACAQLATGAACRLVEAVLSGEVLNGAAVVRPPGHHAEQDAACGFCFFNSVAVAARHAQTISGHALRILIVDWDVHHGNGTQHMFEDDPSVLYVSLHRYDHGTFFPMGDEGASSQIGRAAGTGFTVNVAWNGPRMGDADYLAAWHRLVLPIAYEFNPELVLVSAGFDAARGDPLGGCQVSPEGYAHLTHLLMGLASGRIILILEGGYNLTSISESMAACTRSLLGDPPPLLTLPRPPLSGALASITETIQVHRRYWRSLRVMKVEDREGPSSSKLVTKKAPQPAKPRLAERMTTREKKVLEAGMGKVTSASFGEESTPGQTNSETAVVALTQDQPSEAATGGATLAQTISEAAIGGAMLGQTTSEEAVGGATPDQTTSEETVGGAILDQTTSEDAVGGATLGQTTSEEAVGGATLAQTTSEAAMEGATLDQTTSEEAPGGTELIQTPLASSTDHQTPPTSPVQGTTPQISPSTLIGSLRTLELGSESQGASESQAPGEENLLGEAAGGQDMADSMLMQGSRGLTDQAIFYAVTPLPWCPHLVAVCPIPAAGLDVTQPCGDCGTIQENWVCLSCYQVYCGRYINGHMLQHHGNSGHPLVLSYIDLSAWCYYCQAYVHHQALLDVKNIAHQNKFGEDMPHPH

[5] = Cytotoxicity against human SU 86.86 cells after 72 hrs by MTT assay; assay type: functional, cell-based; conditions: SU.86.86, 72 h
Plasmodium falciparum [6] = assay: Antimalarial activity against Plasmodium falciparum D6 by hypoxanthine uptake; assay type: functional, organism-based
[7] = Cytotoxicity against human Hup T3 cells after 72 hrs by MTT assay; assay type: functional, cell-based; conditions: HuP-T3, 72 h
[8] = molecular target: T2, Polyamine deacetylase HDAC10 (Homo sapiens, UniProt Q969S8)
T2 sequence (Q969S8 whole entry): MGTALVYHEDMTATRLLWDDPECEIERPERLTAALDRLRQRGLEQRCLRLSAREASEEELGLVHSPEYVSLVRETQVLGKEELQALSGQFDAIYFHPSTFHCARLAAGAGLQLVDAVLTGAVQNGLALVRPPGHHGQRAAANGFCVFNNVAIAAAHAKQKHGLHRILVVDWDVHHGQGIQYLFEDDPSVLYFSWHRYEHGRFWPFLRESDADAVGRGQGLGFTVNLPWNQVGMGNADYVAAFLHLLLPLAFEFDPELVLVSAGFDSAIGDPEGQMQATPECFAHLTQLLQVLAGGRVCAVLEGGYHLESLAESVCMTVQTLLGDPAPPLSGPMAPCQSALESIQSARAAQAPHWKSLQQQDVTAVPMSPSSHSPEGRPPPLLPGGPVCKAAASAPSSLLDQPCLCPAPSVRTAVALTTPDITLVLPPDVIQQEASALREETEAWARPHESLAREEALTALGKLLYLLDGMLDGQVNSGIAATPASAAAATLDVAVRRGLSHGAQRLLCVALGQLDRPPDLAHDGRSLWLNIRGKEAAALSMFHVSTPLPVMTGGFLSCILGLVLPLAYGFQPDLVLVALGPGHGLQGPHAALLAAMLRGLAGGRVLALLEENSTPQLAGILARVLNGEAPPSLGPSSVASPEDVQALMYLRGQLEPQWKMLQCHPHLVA

Histone deacetylase 8 = molecular target: T3, Histone deacetylase 8 (Homo sapiens, UniProt Q9BY41)
T3 sequence (Q9BY41 whole entry): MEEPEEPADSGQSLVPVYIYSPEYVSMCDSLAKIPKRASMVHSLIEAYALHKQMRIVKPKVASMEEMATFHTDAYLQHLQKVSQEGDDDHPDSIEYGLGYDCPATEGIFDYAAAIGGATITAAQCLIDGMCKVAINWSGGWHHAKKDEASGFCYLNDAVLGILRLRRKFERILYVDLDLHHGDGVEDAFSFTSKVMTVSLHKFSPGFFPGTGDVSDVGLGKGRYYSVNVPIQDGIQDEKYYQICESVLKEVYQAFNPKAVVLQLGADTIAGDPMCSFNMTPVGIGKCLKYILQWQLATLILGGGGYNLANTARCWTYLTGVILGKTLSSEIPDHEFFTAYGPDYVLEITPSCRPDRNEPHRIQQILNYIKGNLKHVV

Histone deacetylase 3 = Histone deacetylase 3 (Homo sapiens, UniProt O15379)
Plasmodium falciparum [9] = assay: microbe, parasite or virus in culture; conditions: TM91C235
Description: Antimalarial activity against Plasmodium falciparum TM91C235 by hypoxanthine uptake

[10] = Selectivity for HDAC10 over HDAC1
Histone deacetylase 1 = Histone deacetylase 1 (Homo sapiens, UniProt Q13547)
Histone deacetylase 1, sequence (Q13547 whole entry): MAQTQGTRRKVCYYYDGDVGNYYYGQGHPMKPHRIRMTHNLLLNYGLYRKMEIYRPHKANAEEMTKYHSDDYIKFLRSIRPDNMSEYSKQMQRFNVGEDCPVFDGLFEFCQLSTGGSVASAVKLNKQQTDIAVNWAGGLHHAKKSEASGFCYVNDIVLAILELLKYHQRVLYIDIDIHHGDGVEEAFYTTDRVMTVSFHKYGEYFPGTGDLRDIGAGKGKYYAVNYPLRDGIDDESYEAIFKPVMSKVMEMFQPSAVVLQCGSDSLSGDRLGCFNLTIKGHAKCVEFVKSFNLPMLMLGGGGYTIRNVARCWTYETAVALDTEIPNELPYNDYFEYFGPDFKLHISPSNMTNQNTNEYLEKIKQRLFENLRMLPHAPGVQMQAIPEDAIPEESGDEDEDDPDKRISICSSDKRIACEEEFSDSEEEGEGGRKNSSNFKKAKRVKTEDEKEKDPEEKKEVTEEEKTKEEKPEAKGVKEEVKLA

Histone deacetylase 3, sequence (O15379 whole entry): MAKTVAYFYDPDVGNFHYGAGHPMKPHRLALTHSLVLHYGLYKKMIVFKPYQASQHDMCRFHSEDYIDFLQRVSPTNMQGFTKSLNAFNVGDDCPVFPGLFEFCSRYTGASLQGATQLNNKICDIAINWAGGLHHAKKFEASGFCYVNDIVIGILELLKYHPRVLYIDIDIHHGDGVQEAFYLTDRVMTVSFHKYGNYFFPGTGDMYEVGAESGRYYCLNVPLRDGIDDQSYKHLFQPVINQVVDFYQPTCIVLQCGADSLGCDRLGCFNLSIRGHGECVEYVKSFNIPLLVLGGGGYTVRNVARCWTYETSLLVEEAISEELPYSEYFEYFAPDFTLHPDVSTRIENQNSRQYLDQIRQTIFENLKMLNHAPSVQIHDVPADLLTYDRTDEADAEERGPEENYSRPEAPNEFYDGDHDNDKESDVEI
Histone deacetylase 2, sequence (Q92769 whole entry): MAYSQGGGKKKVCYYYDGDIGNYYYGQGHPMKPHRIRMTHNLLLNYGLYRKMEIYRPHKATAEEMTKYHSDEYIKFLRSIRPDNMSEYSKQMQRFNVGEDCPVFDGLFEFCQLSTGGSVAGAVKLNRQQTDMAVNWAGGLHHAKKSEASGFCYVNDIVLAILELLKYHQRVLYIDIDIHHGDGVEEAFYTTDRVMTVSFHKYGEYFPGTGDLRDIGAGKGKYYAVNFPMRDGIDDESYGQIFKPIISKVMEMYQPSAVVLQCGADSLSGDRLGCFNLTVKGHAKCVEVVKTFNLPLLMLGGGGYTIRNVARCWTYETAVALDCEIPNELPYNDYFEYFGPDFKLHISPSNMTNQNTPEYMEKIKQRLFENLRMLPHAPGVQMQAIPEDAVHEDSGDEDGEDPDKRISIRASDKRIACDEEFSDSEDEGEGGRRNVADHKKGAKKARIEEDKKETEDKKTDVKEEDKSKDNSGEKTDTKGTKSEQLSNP

Structure (SMILES)	IC50 [1]	IC50 (Plasmodium falciparum [2])	IC50 (MIA PaCa-2)	IC50 (BXPC-3)	IC50 (Histone deacetylase 2)	IC50 (Plasmodium falciparum [3])	IC50 [4]	IC50 [5]	IC50 (Plasmodium falciparum [6])	IC50 [7]	IC50 [8]	IC50 (Histone deacetylase 8)	IC50 (Histone deacetylase 3)	IC50 (Plasmodium falciparum [9])	Ratio IC50 [10]	IC50 (Histone deacetylase 1)
O=C(CCCCCCC(=O)Nc1cccc(-c2cn(CC(O)c3cccc(Br)c3)nn2)c1)NO (stereo not given)	14000 nM	560 nM	800 nM	11000 nM	64.4 nM	110 nM	1.9 nM	12000 nM	110 nM	11000 nM	13 nM	440 nM	2.7 nM	260 nM	1.1	14.9 nM
O=C(CCCCCCC(=O)Nc1cccc(-c2cn(Cc3ccccc3)nn2)c1)NO	2000 nM	160 nM	< 500 nM	3000 nM	43 nM	190 nM	3.1 nM	2000 nM	140 nM	1000 nM	18.5 nM	1990 nM	7.9 nM	220 nM	0.8	14.5 nM
O=C(CCCCCCC(=O)Nc1ccc(-c2cn(Cc3ccccc3)nn2)cc1)NO	2000 nM	530 nM	< 1000 nM	9000 nM	679 nM	160 nM	4.8 nM	10000 nM	210 nM	5000 nM	188 nM	3970 nM	–	300 nM	0.6	113 nM
O=C(CCCCCCC(=O)Nc1cccc(-c2cnnn2Cc2ccc(F)cc2)c1)NO	9000 nM	590 nM	2000 nM	11000 nM	124 nM	210 nM	3.8 nM	8000 nM	300 nM	5000 nM	17.6 nM	529 nM	5.8 nM	460 nM	1.5	25.9 nM
O=C(CCCCCCC(=O)Nc1ccc(-c2cnnn2CC(O)c2cccc(Br)c2)cc1)NO (stereo not given)	44000 nM	> 950 nM	37000 nM	25000 nM	216 nM	230 nM	4.2 nM	42000 nM	230 nM	46000 nM	74.8 nM	737 nM	15.1 nM	390 nM	0.9	69.9 nM
O=C(CCCCCCC(=O)Nc1cccc(-c2cnnn2-c2ccccc2)c1)NO	2000 nM	730 nM	3000 nM	10000 nM	167 nM	330 nM	7.5 nM	4000 nM	320 nM	8000 nM	24.5 nM	942 nM	7.7 nM	500 nM	1.4	33.4 nM
O=C(CCCCCCC(=O)Nc1ccc(-c2cn(CC(O)c3cccc(Br)c3)nn2)cc1)NO (stereo not given)	10000 nM	390 nM	600 nM	18000 nM	143 nM	190 nM	4.4 nM	12000 nM	80 nM	12000 nM	86.5 nM	3130 nM	25.3 nM	110 nM	0.8	69.2 nM
O[C@@H](c1cc(C(F)(F)F)nc2c(C(F)(F)F)cccc12)[C@H]1CCCCN1 [MEFLOQUINE]	–	–	–	–	–	–	–	–	11 nM	–	–	–	–	–	–	–
O=C(CCCCCCC(=O)Nc1ccccc1)NO [VORINOSTAT]	–	–	–	–	–	–	–	–	–	800 nM	–	–	–	–	–	–
O=C(CCCCCCC(=O)Nc1ccc(-c2cn(Cc3ccc(F)cc3)nn2)cc1)NO	3000 nM	–	< 500 nM	22000 nM	294 nM	–	1.9 nM	11000 nM	–	4000 nM	112 nM	797 nM	13.7 nM	–	0.9	97.8 nM
